This assay relates to reticulated platelets. Description: Passive Antibody Transfer Model of ITP (immunothrombocytopenia). It is filed as in vivo. The note with it: C57Bl/6NCrI mice, anti-CD41 antibody; daily intraperitoneal 30 μg/kg vs saline. From the text:
The Passive Antibody Transfer Model of ITP has been extensively used to understand the progression of chronic ITP and to rapidly evaluate the efficacy of various therapeutics (Neschadim et al., 2015). The model is characterized by a rapid onset of the ITP and clear involvement of phagocytic monocytes in platelet destruction. In addition, it provides a possibility to use self-antigens relevant to the human condition. Depending on the type, quantity, and frequency of the administered antibody it is possible to vary the severity and the persistence of the induced ITP by fine-tuning the rate and the level of platelet decline whereas the repeated administration of the monoclonal antibody simulates chronic human IT.
Female 6-week old C57Bl/6NCrI mice and genetically-modified C57Bl/6NCrI mice with neu1 deficiency (Passive Antibody Transfer Model of ITP, Neschadim et al., 2015) received escalating daily doses (68 μg/kg on the 1st and 2d days, 102 μg/kg on the third day) of anti-CD41 anti-platelet monoclonal mouse antibody (clone MWReg30) by intraperitoneal injection. The reticulated platelets were measured daily for three days by flow cytometric analysis. Control mice (C57B16) received injections of saline. […]

SMILES strings stand for the structures.

Take `CCCCC(=O)NCC(O)C(O)C1OC(C(=O)O)=CC(O)[C@H]1NC(C)=O` (stereo partly drawn) [compound 50, 5-Acetamido-9-pentanamido-2,6-anhydro-3,5-dideoxy-D-glycero-D-galacto-non-2-enonic acid]: the platelet reduction rate entry is reported as “lower platelet reduction rates”.

For the origin of these results see US20220110919A1, “METHODS OF MODULATING LEUKOCYTES ACTIVATION AND THROMBOCYTE CLEARANCE WITH INHIBITORS OF SPECIFIC NEURAMINIDASE ISOENZYMES” (The Governors of the University of Alberta, priority 2018, published 2022).
